Measured values published in ChEMBL document CHEMBL1201862, “PubChem BioAssay data set” (2004).
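Where inhibition never reached the appropriate level, the endpoint shown equals the highest concentration tested. Otherwise, values were interpolated linearly from a five-concentration, 48-hour dose response in 96-well plates. At the GI50, growth is halved.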 Active and inactive are the calls of the source. Cut-off read from the data, not from the text of the source: active = GI50 up to about 1.1 µM and inactive = higher.

Columns and labels:
Assay in all cases: NCI anticancer screen, dose series, 48 h
786-0 = system: 786-0
A498 = system: A498
A549 = system: A549
ACHN = system: ACHN
BT-549 = system: BT-549
CAKI-1 = system: CAKI-1
CCRF-CEM = system: CCRF-CEM
COLO 205 = system: COLO 205
DU-145 = system: DU-145
EKVX = system: EKVX
HCC 2998 = system: HCC 2998
HCT-116 = system: HCT-116
HCT-15 = system: HCT-15
HL-60 = system: HL-60
HOP-62 = system: HOP-62
HOP-92 = system: HOP-92
HT-29 = system: HT-29
Hs-578T = system: Hs-578T
IGROV-1 = system: IGROV-1
K562 = system: K562
KM12 = system: KM12
LOX IMVI = system: LOX IMVI
M14 = system: M14
MCF7 = system: MCF7
MDA-MB-231 = system: MDA-MB-231
MDA-MB-435 = system: MDA-MB-435
MOLT-4 = system: MOLT-4
Malme-3M = system: Malme-3M
NCI-H226 = system: NCI-H226
NCI-H23 = system: NCI-H23
NCI-H460 = system: NCI-H460
NCI-H522 = system: NCI-H522
NCI/ADR-RES = system: NCI/ADR-RES
OVCAR-3 = system: OVCAR-3
OVCAR-4 = system: OVCAR-4
OVCAR-5 = system: OVCAR-5
OVCAR-8 = system: OVCAR-8
PC-3 = system: PC-3
RPMI-8226 = system: RPMI-8226
RXF 393 = system: RXF 393
SF-268 = system: SF-268
SF-295 = system: SF-295
SF-539 = system: SF-539
SK-MEL-28 = system: SK-MEL-28
SK-MEL-2 = system: SK-MEL-2
SK-MEL-5 = system: SK-MEL-5
SK-OV-3 = system: SK-OV-3
SN12C = system: SN12C
SNB-19 = system: SNB-19
SNB-75 = system: SNB-75
SR = system: SR
SW-620 = system: SW-620
T47D = system: T47D
TK-10 = system: TK-10
U-251 = system: U-251
UACC-257 = system: UACC-257
UACC-62 = system: UACC-62
UO-31 = system: UO-31
MDA-N = system: MDA-N

`N#Cc1c2c(c(Nc3ccc(Cl)cc3)n3c1nc1ccccc13)CCCC2` was tested. Which GI50 (786-0) did it give?
Its GI50 is 26.9 µM (inactive).

What about the GI50 (A498) of the same compound?
The GI50 was > 94.6 µM (inactive).

And the GI50 (A549)?
The GI50 was 43 µM (inactive).

What about the GI50 (ACHN) of the same compound?
The GI50 was 18.6 µM (inactive).

What about the GI50 (BT-549) of the same compound?
The GI50 was > 70.1 µM (inactive).

What about the GI50 (CAKI-1) of the same compound?
Its GI50 is 36.5 µM (inactive).

And the GI50 (CCRF-CEM)?
Its GI50 is 34.6 µM (inactive).

And the GI50 (COLO 205)?
Its GI50 is 37.9 µM (inactive).

What about the GI50 (DU-145) of the same compound?
The GI50 was > 69.2 µM (inactive).

And the GI50 (EKVX)?
The GI50 was 48.3 µM (inactive).

And the GI50 (HCC 2998)?
Its GI50 is 32.9 µM (inactive).

What about the GI50 (HCT-116) of the same compound?
The GI50 was 8.65 µM (inactive).

And the GI50 (HCT-15)?
The GI50 was 25.9 µM.

And the GI50 (HL-60)?
The GI50 was 7.03 µM (inactive).

And the GI50 (HOP-62)?
The GI50 was 31.2 µM (inactive).

And the GI50 (HOP-92)?
Its GI50 is > 37.4 µM (inactive).

What about the GI50 (HT-29) of the same compound?
The GI50 was 18.5 µM (inactive).

What about the GI50 (Hs-578T) of the same compound?
Its GI50 is 26.2 µM (inactive).

And the GI50 (IGROV-1)?
The GI50 was 47.4 µM (inactive).

And the GI50 (K562)?
The GI50 was 4.46 µM (inactive).

And the GI50 (KM12)?
Its GI50 is 20.3 µM (inactive).

And the GI50 (LOX IMVI)?
The GI50 was > 63.5 µM (inactive).

And the GI50 (M14)?
The GI50 was > 83.2 µM (inactive).

And the GI50 (MCF7)?
Its GI50 is 7.59 µM (inactive).

What about the GI50 (MDA-MB-231) of the same compound?
The GI50 was > 86.9 µM (inactive).

What about the GI50 (MDA-MB-435) of the same compound?
Its GI50 is > 100 µM (inactive).

And the GI50 (MOLT-4)?
The GI50 was 3.18 µM (inactive).

And the GI50 (Malme-3M)?
Its GI50 is > 67.6 µM (inactive).

And the GI50 (NCI-H226)?
Its GI50 is > 64.3 µM (inactive).

And the GI50 (NCI-H23)?
The GI50 was > 71.3 µM (inactive).

And the GI50 (NCI-H460)?
The GI50 was 14.8 µM (inactive).

What about the GI50 (NCI-H522) of the same compound?
The GI50 was 17.5 µM (inactive).

And the GI50 (NCI/ADR-RES)?
The GI50 was 44.1 µM (inactive).

And the GI50 (OVCAR-3)?
The GI50 was 13.4 µM (inactive).

What about the GI50 (OVCAR-4) of the same compound?
Its GI50 is 16.2 µM (inactive).

What about the GI50 (OVCAR-5) of the same compound?
Its GI50 is > 100 µM (inactive).

What about the GI50 (OVCAR-8) of the same compound?
Its GI50 is 37.6 µM (inactive).

And the GI50 (PC-3)?
Its GI50 is 7.06 µM (inactive).

And the GI50 (RPMI-8226)?
Its GI50 is 4.75 µM (inactive).

What about the GI50 (RXF 393) of the same compound?
Its GI50 is 33.7 µM (inactive).

What about the GI50 (SF-268) of the same compound?
Its GI50 is 44 µM (inactive).

And the GI50 (SF-295)?
Its GI50 is 28.5 µM (inactive).

What about the GI50 (SF-539) of the same compound?
Its GI50 is 21.1 µM (inactive).

And the GI50 (SK-MEL-28)?
The GI50 was > 76 µM (inactive).

And the GI50 (SK-MEL-2)?
Its GI50 is > 63.8 µM (inactive).

And the GI50 (SK-MEL-5)?
The GI50 was 20.5 µM (inactive).

And the GI50 (SK-OV-3)?
Its GI50 is 54.7 µM (inactive).

What about the GI50 (SN12C) of the same compound?
Its GI50 is 65.9 µM (inactive).

And the GI50 (SNB-19)?
Its GI50 is 23.1 µM (inactive).

And the GI50 (SNB-75)?
The GI50 was 28.7 µM (inactive).

What about the GI50 (SR) of the same compound?
The GI50 was 17 µM (inactive).

And the GI50 (SW-620)?
Its GI50 is > 61 µM (inactive).

What about the GI50 (T47D) of the same compound?
The GI50 was 33.1 µM (inactive).

And the GI50 (TK-10)?
Its GI50 is 53.1 µM (inactive).

What about the GI50 (U-251) of the same compound?
The GI50 was 18.5 µM (inactive).

And the GI50 (UACC-257)?
The GI50 was 48 µM (inactive).

What about the GI50 (UACC-62) of the same compound?
Its GI50 is > 100 µM (inactive).

What about the GI50 (UO-31) of the same compound?
The GI50 was > 51.2 µM (inactive).

Which GI50 (786-0) does the source give for `COc1ccc(C2=Nc3c(nc(OC)[nH]c3=O)NC(c3ccccc3)C2)cc1` (stereo not drawn) here?
Its GI50 is 27.6 µM (inactive).

What about the GI50 (A498) of the same compound?
Its GI50 is 32.6 µM (inactive).

What about the GI50 (A549) of the same compound?
The GI50 was 34.4 µM (inactive).

And the GI50 (ACHN)?
Its GI50 is 27.5 µM (inactive).

What about the GI50 (BT-549) of the same compound?
Its GI50 is 31 µM (inactive).

What about the GI50 (CAKI-1) of the same compound?
Its GI50 is 52 µM (inactive).

And the GI50 (CCRF-CEM)?
The GI50 was 30.8 µM (inactive).

What about the GI50 (COLO 205) of the same compound?
The GI50 was 24.6 µM (inactive).

And the GI50 (DU-145)?
Its GI50 is 42.3 µM (inactive).

What about the GI50 (EKVX) of the same compound?
The GI50 was 33.9 µM (inactive).

What about the GI50 (HCT-116) of the same compound?
Its GI50 is 28.4 µM (inactive).

And the GI50 (HL-60)?
Its GI50 is 19.3 µM (inactive).

And the GI50 (HOP-62)?
The GI50 was 41.5 µM (inactive).

What about the GI50 (HOP-92) of the same compound?
The GI50 was 32.3 µM (inactive).

What about the GI50 (HT-29) of the same compound?
Its GI50 is 28.4 µM (inactive).

And the GI50 (IGROV-1)?
Its GI50 is 30.1 µM (inactive).

And the GI50 (K562)?
Its GI50 is 25.2 µM (inactive).

What about the GI50 (KM12) of the same compound?
Its GI50 is 18.2 µM (inactive).

And the GI50 (LOX IMVI)?
Its GI50 is 26.6 µM (inactive).

What about the GI50 (M14) of the same compound?
The GI50 was 27.3 µM (inactive).

And the GI50 (MCF7)?
Its GI50 is 21.9 µM (inactive).

And the GI50 (MDA-MB-231)?
Its GI50 is 20.7 µM (inactive).

What about the GI50 (MDA-MB-435) of the same compound?
The GI50 was 33.3 µM (inactive).

And the GI50 (MDA-N)?
The GI50 was 27 µM (inactive).

What about the GI50 (MOLT-4) of the same compound?
Its GI50 is 38.6 µM (inactive).

What about the GI50 (Malme-3M) of the same compound?
The GI50 was > 100 µM (inactive).

And the GI50 (NCI-H226)?
The GI50 was 36.6 µM (inactive).

What about the GI50 (NCI-H23) of the same compound?
Its GI50 is 29.6 µM (inactive).

And the GI50 (NCI-H522)?
The GI50 was 28.7 µM (inactive).

What about the GI50 (NCI/ADR-RES) of the same compound?
Its GI50 is 24.8 µM (inactive).

What about the GI50 (OVCAR-3) of the same compound?
Its GI50 is 33.8 µM (inactive).

What about the GI50 (OVCAR-5) of the same compound?
Its GI50 is 46.6 µM (inactive).

What about the GI50 (OVCAR-8) of the same compound?
Its GI50 is 21.4 µM (inactive).

And the GI50 (PC-3)?
The GI50 was 48 µM (inactive).

What about the GI50 (RPMI-8226) of the same compound?
Its GI50 is 32.7 µM (inactive).

What about the GI50 (RXF 393) of the same compound?
The GI50 was 29.7 µM (inactive).

And the GI50 (SF-295)?
The GI50 was 50 µM (inactive).

And the GI50 (SF-539)?
The GI50 was 28.1 µM (inactive).

And the GI50 (SK-MEL-28)?
The GI50 was 19.1 µM (inactive).

What about the GI50 (SK-MEL-2) of the same compound?
The GI50 was 25.7 µM (inactive).

What about the GI50 (SK-MEL-5) of the same compound?
The GI50 was 18.4 µM (inactive).

What about the GI50 (SN12C) of the same compound?
The GI50 was 23.2 µM (inactive).

What about the GI50 (SNB-19) of the same compound?
Its GI50 is 30.5 µM (inactive).

And the GI50 (SNB-75)?
The GI50 was 12.5 µM (inactive).

What about the GI50 (SR) of the same compound?
The GI50 was 53.1 µM (inactive).

And the GI50 (SW-620)?
Its GI50 is 24.1 µM (inactive).

What about the GI50 (U-251) of the same compound?
Its GI50 is 24.8 µM (inactive).

What about the GI50 (UACC-257) of the same compound?
Its GI50 is 49.9 µM (inactive).

And the GI50 (UACC-62)?
Its GI50 is 42.8 µM (inactive).

And the GI50 (UO-31)?
The GI50 was 46.2 µM (inactive).
